{"source": "patent US20170231910A1", "about": "“PHARMACEUTICAL FORMULATIONS OF CHELATING AGENTS AS A METAL REMOVAL TREATMENT SYSTEM” (ZONEONE PHARMA, INC., priority 2014, published 2017)", "key": {"[1]": {"assay": "PK of DFO in plasma of mice after liposomal DFO or Desferal", "assay_type": "in vivo, CF-1 female mice", "details": "100 mg/kg", "procedure": "Liposomes containing egg PC/Chol (3 mol/2 mol, LDFO-1), egg PC/DOPG/Chol (2.7 mol/0.3 mol/2 mol, LDFO-2), and HSPC/Chol (3 mol/2 mol, LDFO-4) containing 500 mM ammonium sulfate were prepared as in Example 1. DFO was remote loaded as in Example 20.\nAfter loading the liposomes were purified by dialysis versus HBS pH 6.5. The liposomes were sterilized by filtration through 0.2 um PES filters and analyzed for drug and lipid content. The liposomal DFO were administered to CF-1 female mice at 100 mg/kg (n=3) and at various times the animals were sacrificed and blood taken.\nAfter processing to plasma, DFO was extracted from plasma by mixing with 6 volumes of methanol containing 0.1% trifluoroacetic acid in an eppendorf tube. The mixtures were vortexed twice for 10 seconds then placed at −80° C. for 1 h. The samples were thawed and centrifuged for 12,000 rpm for 10 min at 4° C. and the supernatant analyzed for DFO by HPLC as described herein. […] By comparison DFO was undetectable beyond 1 h after dosing with Desferal®."}, "[2]": {"tested_on": "Iron Overloaded Mouse Model", "assay": "Liver iron removal from iron overloaded mouse model (ferrozine assay)", "assay_type": "in vivo", "details": "iron-dextran overloaded mice, IV 100 mg/kg chelator on day 7 and day 10", "procedure": "LDFO formulations were prepared as described in Example 1. Both formulations were composed of HSPC/cholesterol (3/0.5 (mol/mol)). One formulation was prepared using 250 mM ammonium sulfate (LDFO-AS) as the trapping agent and the second formulation was prepared using 250 mM ascorbate phosphate (LDFO-AP) as the trapping agent and all other components and DFO loading procedures of the formulations were identical. Mice were overloaded with a single IV injection of iron-dextran at 100 mg/kg Fe. Overloaded mice were treated with each formulation IV at 100 mg/kg chelator on day 7 and day 10. The mice were sacrificed after the second treatment and the livers were analyzed for iron content using a ferrozine assay (Riemer et al. 2004)"}}, "note": "Counter-ions that a name gives are not always drawn.", "data": [{"smiles": "CC(=O)N(O)CCCCCNC(=O)CCC(=O)N(O)CCCCCNC(=O)CCC(=O)N(O)CCCCCN", "note": "[Desferal, deferoxamine mesylate]", "values": [{"measurement": "DFO in plasma after dosing", "setting": "[1]; beyond 1 h after dosing", "value": "undetectable"}, {"measurement": "initial dose (ID) of DFO retained in the plasma at 24 h", "setting": "[1]; IV, 24 h", "value": "undetectable"}, {"measurement": "mean liver iron content after treating", "setting": "[2]", "value": 229, "unit": "mg/kg"}]}]}
